Experimental data as given in US11357782B2, “Treprostinil administration by inhalation” (priority 2006, dated 2022).
Entries after “also recorded” stand apart in the source; their conditions may differ.

System: patients with moderate to severe precapillary pulmonary hypertension
Assay: Acute vasodilator challenge during right heart catheter investigation: inhaled treprostinil applied by soft mist inhaler (Example 1)
Conditions: for CO (max) / HR (max) / SvO2 (max): highest value; for CO (max) / HR (max) / SvO2 (max) / PAP (min) / PVR (min) / SAP (min) / SVR (min) / SaO2 (min): mean ± SEM; for PAP (min): lowest value during 120 min observation; for PVR (min) / SAP (min) / SVR (min) / SaO2 (min): lowest value; for pulmonary vascular resistance (PVR) reduced to: Respimat SMI, mean±95% confidence interval
Description: A study was conducted of acute vasodilator challenge during right heart catheter investigation to determine the safety, tolerability and pulmonary vasodilatory potency of inhaled treprostinil applied in seconds by a soft mist inhaler (SMI-TRE).
Inhaled nitric oxide (20 ppm; n=45) and inhaled treprostinil sodium (TRE; n=41) or placebo (n=4) were applied once during right heart catheter investigation. TRE was delivered in 2 breaths (1000 μg/ml aerosol concentration; 30 μg dose; n=12), 3 breaths (1000 μg/ml; 45 μg; n=9) or 2 breaths (2000m/m1; 60 μg; n=20) from a Respimat® SMI. Pulmonary hemodynamics and blood gases were measured at defined time points, observation time following TRE application was 120 minutes.
• A total number of 45 patients with moderate to severe precapillary pulmonary hypertension were enrolled. […] Disease etiologies were idiopathic PAH (iPAH) (n=13), PAH other (n=11), chronic thromboembolic pulmonary hypertension (CTEPH) (n=17) and pulmonary fibrosis (n=4).
Baseline values were determined 20-30 minutes after placement of the catheter. Heart rate, pulmonary and systemic blood pressure and cardiac output were measured and blood gases were taken during each pharmacological intervention at defined time points. Pharmacological interventions included the inhalation of 20 ppm nitric oxide (NO) after evaluation of baseline parameters (n=45) and the consecutive inhalation of placebo (n=4), 30 μg SMI-TRE (n=12), 45 μg SMI-TRE (n=9) or 60 μg (n=20) SMI-TRE. Placebo and treprostinil was applied with the Respimat® SMI. For filling of this device with treprostinil sodium, the placebo solution was withdrawn from the device with a syringe and treprostinil solution was injected into the device under sterile conditions. Aerosol quality was controlled before and after refilling of the SMI devices by laser diffractometry, see e.g. Gessler T., Schmehl T., Hoeper M.M., Rose F., Ghofrani H.A., Olschewski H. et al. Ultrasonic versus jet nebulization of iloprost in severe pulmonary hypertension. Eur. Respir. J. 2001; 17:14-19 incorporated herein in its entirety. […] The aerosol volume delivered by one cycle from the SMI was 15 μl. The solution used for aerosol generation was prepared from treprostinil sodium salt using a standard protocol. The SMI was either filled with a concentration of 1000 μg/ml treprostinil sodium (one aerosol puff=15 μg TRE) or with 2000 μg/ml (one puff=30 μg TRE). The different doses were applied as 2 puffs 1000 μg/ml (30 μg), 3 puffs 1000m/m1 (45 μg) and 2 puffs 2000 μg/ml (60 μg). The placebo was inhaled as 2 puffs from a placebo-SMI. Hemodynamics and gas-exchange parameters were recorded for 120 minutes after TRE inhalation.

CCCCC[C@H](O)CC[C@@H]1[C@H]2Cc3cccc(OCC(=O)[O-])c3C[C@H]2C[C@H]1O.[Na+] [TRE]
120 minute area under the curve for PVR (30 μg TRE): −870±940 min % | duration of effect on pulmonary vascular resistance (30 μg TRE, compared with 45 and 60 μg): somewhat shorter effect | CO (max) (30 μg TRE, n=12): 108.8 ± 3.8% of baseline values | HR (max) (30 μg TRE, n=12): 106.1 ± 2.9% of baseline values | SvO2 (max) (30 μg TRE, n=12): 102.4 ± 1.3% of baseline values | PAP (min) (30 μg TRE, n=12): 83.4 ± 3.2% of baseline values | PVR (min) (30 μg TRE, n=12): 84.4 ± 4.4% of baseline values | SAP (min) (30 μg TRE, n=12): 97.3 ± 1.9% of baseline values | SVR (min) (30 μg TRE, n=12): 97.7 ± 4.2% of baseline values | SaO2 (min) (30 μg TRE, n=12): 101 ± 0.3% of baseline values | pulmonary vascular resistance (PVR) reduced to (30 μg, 2 breaths 1000 μg/ml): 84.4±8.7 % of baseline values | 120 minute area under the curve for PVR (45 μg TRE): −2450±2070 min % | CO (max) (45 μg TRE, n=9): 108.6 ± 5.6% of baseline values | HR (max) (45 μg TRE, n=9): 99.1 ± 2.4% of baseline values | SvO2 (max) (45 μg TRE, n=9): 104.5 ± 4.4% of baseline values | PAP (min) (45 μg TRE, n=9): 77.6 ± 6.8% of baseline values | PVR (min) (45 μg TRE, n=9): 71.4 ± 8.9% of baseline values | SAP (min) (45 μg TRE, n=9): 96.1 ± 1.5% of baseline values | SVR (min) (45 μg TRE, n=9): 92 ± 3.9% of baseline values | SaO2 (min) (45 μg TRE, n=9): 94.4 ± 1.8% of baseline values | pulmonary vascular resistance (PVR) reduced to (45 μg, 3 breaths 1000 μg/ml): 71.4±17.5 % of baseline values | 120 minute area under the curve for PVR (60 μg TRE): −2000±900 min % | CO (max) (60 μg TRE, n=20): 103.8 ± 2.0% of baseline values | HR (max) (60 μg TRE, n=20): 101.1 ± 0.9% of baseline values | SvO2 (max) (60 μg TRE, n=20): 102 ± 1.0% of baseline values | PAP (min) (60 μg TRE, n=20): 79.5 ± 2.4% of baseline values | PVR (min) (60 μg TRE, n=20): 77.5 ± 3.7% of baseline values | SAP (min) (60 μg TRE, n=20): 93.6 ± 2.9% of baseline values | SVR (min) (60 μg TRE, n=20): 91.3 ± 2.1% of baseline values | SaO2 (min) (60 μg TRE, n=20): 95.8 ± 0.9% of baseline values | pulmonary vascular resistance (PVR) reduced to (60 μg, 2 breaths): 77.5±7.2 % of baseline values | effect on systemic vascular resistance and pressure (30-60 μg from Respimat SMI): very small and not clinically significant | systemic side effects (30-60 μg from Respimat SMI): No systemic side effects | tolerability / side effects (30-60 μg from Respimat SMI, listed as SMI-TRE): No significant side effects; also recorded: well tolerated; also recorded: only mild and transient cough for a maximum of one minute | duration of PVR reduction / pulmonary vasodilation (45 and 60 μg, single inhalation of 2-3 breaths, outlasted observation time): > 120 min | cardiac output (120 min observation period): significantly increased | gas exchange (120 min observation period): not influenced | heart rate (120 min observation period): rather unchanged
